Source: patent US10167322B2, “Engineered albumin binding polypeptide” (AFFIBODY AB, priority 2013, dated 2019)
“And” between values parts separate entries of the source, which are not always exact repeats. Equal values may be shown once. Read-outs that look alike come from different tables or passages of the source. Starred links: 1 amine or outer side, 2 acyl side, 3 side chain; linkers in the order of their positions; H or OH if unused. Positions of bridges follow the written chain, without caps; N, C: chain ends. No end group written: not given here. Pyridine(2,6-diCH2) = c1cc(C[*:1])nc(C[*:2])c1; mXylylene = c1cc(C[*:1])cc(C[*:2])c1; oXylylene = c1ccc(C[*:2])c(C[*:1])c1; X1 = O=C(C[*:1])[*:2]

Legend:
[1] = molecular target: T1, human serum albumin (HSA) (Homo sapiens, UniProt P02768); assay: SPR biosensor (ProteOn XPR36) screening of binding to immobilized HSA; conditions: 50 nM polypeptide, 2500 RU immobilized HSA, 25 °C
Procedure: Biosensor binding analyses were performed on a ProteOn XPR36 instrument (Bio-Rad) at 25° C. using PBST (150 mM NaCl, 8 mM Na2HPO4, 2 mM NaH2PO4, 0.005% Tween20, pH 7.4) as running buffer at a flow rate of 50 μl min^−1. An injection of 30 μl of 20 mM HCl at a flow rate of 100 μl min^−1 was used for chip regeneration. In a screening experiment, the binding of all polypeptide variants to human serum albumin (HSA) was investigated. The proteins were diluted to 50 nM in running buffer and injected over a chip surface with 2500 RU of immobilized HSA. The association was studied for 300 s and the dissociation was followed for 7200 s (2 h). For data analysis, all samples were double referenced; the signal from a blank surface was first subtracted from the signal from the respective protein, and secondly the signal from an injection of PBST (running buffer) over the HSA surface was subtracted.

[2] = molecular target: T1, human serum albumin (HSA); assay: SPR biosensor (ProteOn XPR36) HSA binding kinetics, 1:1 Langmuir fit; conditions: for comparison only; for kon / koff: triplicate, mean (±SD), relative values; for kon: read-out: ka (association rate constant); for koff: read-out: kd (dissociation rate constant)
Procedure: The HSA binding kinetics of PEP18049_CL and the reference protein PEP07830 were further studied using a sensor chip with HSA immobilized on three different surfaces to between 1100 RU and 1600 RU. The proteins were diluted in running buffer (0.8, 1.6, 3.3, and 6.6 nM for PEP18049_CL and 1.0, 2.0, 4.0 and 8.0 nM for PEP07830) and injected over the three HSA surfaces and thus giving binding curves in triplicate. The association time was 300 s and the dissociation was followed for 36 000 s (10 h).
The kinetic parameters of the binding of PEP18049_CL and the reference protein PEP07830 to HSA were obtained from fitting the obtained sensorgrams to a 1:1 Langmuir binding model using the ProteOn Manager software version 3.1.0.6 (Bio-Rad). The average association rate constant (ka (M^−1 s^−1) and dissociation rate constant (kd (s^−1)) with standard deviation were calculated. From the average ka and the kd the dissociation equilibrium constant (KD (M)) was calculated (KD=kd/ka).

[3] = system: trypsin and chymotrypsin; assay: Protease degradation analysis with trypsin and chymotrypsin (RP-HPLC of intact polypeptide); assay type: in vitro ADME, bovine; conditions: for AUC increase / resistance towards degradation by trypsin together with chymotrypsin compared to PEP07830 / Resistance towards degradation by trypsin and chymotrypsin, screening: 2.7 μg ml^−1 trypsin, 1.2 μg ml^−1 chymotrypsin, 37 °C; for AUC increase / resistance towards degradation by trypsin together with chymotrypsin compared to PEP07830: 0-60 min; for Resistance towards degradation by trypsin and chymotrypsin, screening: PBS pH 7.4, 10 min
Procedure: (§1) Proteolytic degradation was studied using pepsin (obtained from porcine gastric mucosa, 3200-4500 U mg^−1, Sigma) and a mixture of trypsin (obtained from bovine pancreas, ≈37 U mg^−1, Sigma) and chymotrypsin (obtained from bovine pancreas, ≥40 U mg^−1, Sigma). In all degradation experiments, 5 μg protein in PBS (pH 7.4) at a concentration of 0.25 mg ml^−1 (50 μM) was used.
5 μg of each variant was transferred to a microcentrifuge tube. 32 μl PBS (pH 7.4) with trypsin at a concentration of 4.39 μg ml^−1 and chymotrypsin at a concentration of 1.95 μg ml^−1 was added to yield a final concentration of 2.7 μg ml^−1 of trypsin and 1.2 μg ml^−1 of chymotrypsin. In the screening experiment, the samples were incubated for 10 min at 37° C. before the enzyme was inactivated by addition of 3 μl 10% TFA and then the sample was put on ice. A reference sample of each protein was inactivated with TFA before the trypsin and chymotrypsin were added to the tube.
The degradation over time was monitored for PEP18049_CL, PEP14788_CL_A and the reference polypeptide PEP07830 by incubation for 3, 6, 12, 30, or 60 min at 37° C. before inactivation with TFA. As above, reference samples, inactivated with TFA before trypsin and chymotrypsin were added to the tube, were incubated likewise.
(§2) All samples were analyzed by RP-HPLC using an analytical column (Zorbax 300SB-C18, 4.6×150 mm, 3.5 μm particle size, Agilent Technologies) and a gradient of 15-45% solvent B (solvent A: 0.1% TFA-H2O; solvent B: 0.1% TFA-CH3CN) over 25 min at a flow rate of 1.2 ml min^−1 and LC-ESI-MS on a 6520 Accurate Mass Q-TOF LC/MS.
(§3) The elution peaks containing the intact polypeptides were integrated and the area under curve was calculated. The degradation experiments over time were performed in triplicates. The integrated area of each sample was normalized to the mean area of the t=0 samples of that variant, the mean and standard error of the mean were calculated for each time point.
(§4) To quantify the stability improvement of the crosslinked variants, the AUC (area under curve) from the normalized charts was calculated for the three investigated variants. The AUC of the crosslinked variants was then compared to the AUC of the reference polypeptide.

[4] = Circular dichroism variable temperature measurement (melting temperature); assay type: physicochemical; conditions: CD at 221 nm, 20-90 °C, 50 μM in PBS pH 7.4
Procedure: Polypeptides were dissolved in PBS (pH 7.4) to a concentration of 50 μM (approximately 0.25 mg ml^−1) and CD spectra and melting curves were collected on a Jasco J-810 spectropolarimeter (Jasco) using a cell with an optical path-length of 1 mm. Variable temperature measurements, VTM, were used to determine Tm. In these measurements, the […] was measured at 221 nm from 20° C. to 90° C., with a temperature slope of 5° C. min^−1. The secondary structure of each variant was analyzed by recording a spectrum ranging from 250 to 195 nm at 20° C., both before and after VTM.

[5] = molecular target: T2, pepsin (Sus scrofa, UniProt P00791); assay: Protease degradation analysis with pepsin (RP-HPLC of intact polypeptide); assay type: in vitro ADME, porcine; conditions: for AUC increase / resistance towards degradation by pepsin compared to PEP07830: 0.5 μg ml^−1 pepsin, 0-60 min; for AUC increase / resistance towards degradation by pepsin compared to PEP07830 / Resistance towards degradation by pepsin, screening: 37 °C; for Resistance towards degradation by pepsin, screening: 2 μg ml^−1 pepsin, pH around 2.6, 10 min
T2 construct: purchased Sigma; host or cells: porcine gastric mucosa
Procedure: as §1
5 μg of each variant was transferred to a microcentrifuge tube. 32 μl 10 mM HCl with pepsin at a concentration of 3.25 μg ml^−1 or 0.81 μg ml^−1, resulting in a pH around 2.6 and a final pepsin concentration of 2 μg ml^−1 to be used for screening experiment and 0.5 μg ml^−1 for studying the degradation over time. In the screening experiment, the samples were incubated for 10 min at 37° C. before the enzyme was inactivated by addition of 5 μl 0.1 M NaOH, which raised the pH to above 9, and then the sample was put on ice. A reference sample of each protein was inactivated with NaOH before pepsin was added to the tube.
The degradation over time was monitored for PEP18049_CL, PEP14788_CL_A and the reference polypeptide PEP07830 by incubation for 3, 6, 12, 30 or 60 min at 37° C. before inactivation with NaOH. Reference samples, inactivated with NaOH before the pepsin was added to the tube, were incubated likewise.
as §2, §3, §4

[6] = human, HSA immobilized on SPR sensor chip (ProteOn XPR36)
[7] = LC-ESI-MS of degradation products

T2 sequence (P00791 60-385): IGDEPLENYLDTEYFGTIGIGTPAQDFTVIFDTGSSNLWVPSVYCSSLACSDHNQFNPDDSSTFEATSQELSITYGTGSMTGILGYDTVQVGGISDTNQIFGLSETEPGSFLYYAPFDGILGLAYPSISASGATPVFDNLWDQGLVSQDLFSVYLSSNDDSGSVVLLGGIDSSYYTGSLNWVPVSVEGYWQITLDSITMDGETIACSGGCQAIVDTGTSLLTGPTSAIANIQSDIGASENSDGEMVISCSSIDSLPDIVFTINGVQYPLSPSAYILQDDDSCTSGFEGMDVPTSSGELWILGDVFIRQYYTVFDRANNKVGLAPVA

PEP18050_CL: SEQ ID NO:1769 (PEP18050), control polypeptide, crosslinked Lys5-Cys28 (LAEAKEAANAELDSYGVSDFYKRLIDKCKTVEGVEALKDAILAALP; Lys5-Cys28 crosslink; Engineered albumin binding polypeptide)
HSA binding in screening experiment [1]: completely lost their affinity for HSA

PEP18053_CL: SEQ ID NO:1772 (PEP18053), control polypeptide, double crosslinked (CAEAKEAANAELDSYGCSDFYKRLIDKAKTVEGVEALKDAILAAKP; double crosslinked; Engineered albumin binding polypeptide)
HSA binding in screening experiment [1]: weak binding

Ac-LAEAKEAANAELDSYGCSDFYKRLIDKAKTVEGVEALKDAILAAKP-NH2 (linker 17-45 via X1) [PEP18049_CL]
kon [2, 6]: 620000 M⁻¹ s⁻¹ | koff [2, 6]: 1.5e-05 s⁻¹ | Kd ([2]; triplicates): ~0.024 nM and 0.024 nM | AUC increase / resistance towards degradation by trypsin together with chymotrypsin compared to PEP07830 [3]: 5 fold | Resistance towards degradation by trypsin and chymotrypsin, screening [3]: increased resistance towards degradation | HSA binding in screening experiment [1]: fast on-rate and a two phase-like dissociation | Tm (melting temperature) [4]: 63 °C | AUC increase / resistance towards degradation by pepsin compared to PEP07830 [5]: 17 fold | Resistance towards degradation by pepsin, screening [5]: increased resistance towards degradation

PEP18051_CL: SEQ ID NO:1770 (PEP18051), control polypeptide, crosslinked Cys1-Lys29 (CAEAKEAANAELDSYGVSDFYKRLIDKAKTVEGVEALKDAILAALP; Cys1-Lys29 crosslink; Engineered albumin binding polypeptide)
HSA binding in screening experiment [1]: slower on-rate, but also seemed to have a very slow off-rate indicating a high affinity for HSA

LAEAKEAANAELDSYGCSDFYKRLIDKAKTVEGVEALKDAILAACP-NH2 (linker 17-45 via oXylylene) [PEP14788_CL_A]
AUC increase / resistance towards degradation by trypsin together with chymotrypsin compared to PEP07830 [3]: 1.4 fold | Resistance towards degradation by trypsin and chymotrypsin, screening [3]: no significant difference between these variants | AUC increase / resistance towards degradation by pepsin compared to PEP07830 [5]: 2.4 fold | Resistance towards degradation by pepsin, screening [5]: no significant difference between these variants

PEP18052_CL: SEQ ID NO:1771 (PEP18052), control polypeptide, double crosslinked (LAEAKEAANAELDSYGCSDFYKRLIDKCKTVEGVEALKDAILAAKP; double crosslinked; Engineered albumin binding polypeptide)
HSA binding in screening experiment [1]: completely lost their affinity for HSA

LAEAKEAANAELDSYGCSDFYKRLIDKAKTVEGVEALKDAILAACP-NH2 (linker 17-45 via mXylylene) [PEP14788_CL_B]
Resistance towards degradation by trypsin and chymotrypsin, screening [3]: no significant difference between these variants | Resistance towards degradation by pepsin, screening [5]: no significant difference between these variants

LAEAKEAANAELDSYGCSDFYKRLIDKAKTVEGVEALKDAILAACP-NH2 (linker 17-45 via Pyridine(2,6-diCH2)) [PEP14788_CL_E]
Resistance towards degradation by trypsin and chymotrypsin, screening [3]: no significant difference between these variants | Resistance towards degradation by pepsin, screening [5]: no significant difference between these variants

LAEAKEAANAELDSYGVSDFYKRLIDKAKTVEGVEALKDAILAALP-NH2 (C-terminus assumed) [PEP07830, reference compound]
Kd ([2]; human, KD=kd/ka from average ka and kd): 0.021 nM | kon ([2]; human): 190000 M⁻¹ s⁻¹ | koff ([2]; human): 4.1e-06 s⁻¹ | Kd ([2]; human, triplicates): ~0.021 nM | Peptide bond most susceptible for cleavage by trypsin and chymotrypsin [3, 7]: between Tyr21 and Lys22 | Peptide bond rapidly cleaved by pepsin (major degradation products) [5, 7]: between Leu42 and Ala43
